In publication PMC6222357, “Liquid Chromatography-Tandem Mass Spectrometry Simultaneous Determination and Pharmacokinetic Study of Fourteen Alkaloid Components in Dog Plasma after Oral Administration of Corydalis bungeana Turcz Extract” (Molecules : A Journal of Synthetic Chemistry and Natural …, 2018):

Tests used:
[1] = Stability of the analytes in beagle plasma QC samples under different storage conditions; assay type: physicochemical, beagle dog; conditions: n = 6; for Stability (% RE) Long-Term: 2 weeks at −80 °C; for Stability (% RE) Short-Term: 4 h at ambient temperature; for Stability (% RE) Freeze-Thaw: three freeze (−80 °C)-thaw cycles; for Stability (% RE) Post-Preparative: 12 h after sample preparation at 4 °C
Experimental: As illustrated in Table 4. The stability of QC samples at three evaluated concentrations contained low, medium and high under different stored conditions was assessed on the basis of peak areas in comparison with freshly prepared QC sample.
(§1) The stability of the fourteen analytes in beagle dogs investigated by analyzing QC samples of each analyte at three QC levels (LQC, MQC and HQC) and each level contained six replicates. The short-term stability was assessed during storage for 4 h at ambient temperature. The long-term stability was determined after the QC samples had been stored for 2 weeks at −80 °C. The freeze-thaw stability was determined after three freeze at −80 °C and thaw cycles. and post-preparative stability was during storage for 12 h after sample preparation at 4 °C. The room temperature stability for stock solution was determined after storing the sample at 25 °C for 24 h. A series of concentrations of stability testing QC samples was gained by the calibration curve which was established from freshly prepared standard samples.

[2] = Pharmacokinetic study in beagle dogs after oral administration of C. bungeana extract (UHPLC-MS/MS of plasma); conditions: for AUC(0-inf) / AUC(0-t) / Cmax / Tmax / half-life: male, beagle, dog, plasma, po, 0.12 g/kg; for Shape of plasma concentration-time profile / Time of first peak of plasma concentration-time profile / Time of second peak of plasma concentration-time profile: beagle dog plasma; for Shape of plasma concentration-time profile: oral C. bungeana extract 0.12 g/kg; for Time of first peak of plasma concentration-time profile / Time of second peak of plasma concentration-time profile: oral C. bungeana extract, post-dose
Experimental: The developed UHPLC-MS/MS method was employed to determine the pharmacokinetics of the fourteen components in C. bungeana after a single oral administration of 0.12 g/kg (equivalent to 1180.8 µg/kg A, 100.8 µg/kg B, 172.8 µg/kg C, 194.4 µg/kg D, 147.6 µg/kg E, 291.6 µg/kg F, 7.2 µg/kg G, 64.8 µg/kg H, 10.8 µg/kg I, 435.6 µg/kg J, 7.2 µg/kg K, 2851.2 µg/kg L, 694.8 µg/kg M, 928.8µg/kg N) to six beagle dogs. […] According to the Meeh-Rubn method, we established a final oral dosage of 0.12 g/kg in dogs. The plasma concentrations of the fourteen components at each time point were detected and the data gained from six beagle dogs were averaged.
Before the experiment, the beagle dogs were fasted for 12 h but given water during the research period. Blood (300 µL) was collected from the forelimb vein plexus at a few specific time points (0.083, 0.25, 0.5, 0.75 and 1, 2, 3, 4, 6, 8, 12, 24 h) after the oral administration of the extract of C. bungeana (0.12 g/kg). After centrifugation at 13,000 rpm for 10 min, the plasma was collected immediately and maintained at −80 °C until sample analysis.
Using a liquid-liquid extraction method, 100 µL of methanol and 50 µL of IS (bifendate) were added to a beagle dog plasma sample (100 µL) followed by vortex for 30 s. Then 3 mL of aether was accurately added and the mixture was vortexed for 60 s. After this step, the samples were put into a centrifuge (XiangYi Technologies, Changsha, Hunan, China). The organic supernatant was pipetted into clean glass tubes individually after centrifugation 3800 rpm for 6 min. The upper organic layer was removed and evaporated to dryness at 40 °C under a stream of nitrogen. The residue was then redissolved with 100 µL of mobile phase (28% acetonitrile), vortexed for 30 s and filtered by a 0.22 µm membrane. A 10 µL aliquot of the solution was injected into the UHPLC-MS/MS system for analysis.
Concentrations of fourteen alkaloids in beagle dog blood were calculated employing the Excel program (Microsoft Corp., Redmond, WA, USA). Pharmacokinetic parameters were calculated using non-compartmental methods. The elimination rate constant (Ke) was calculated employing the linear regression of the terminal points in a semi-log plot of the plasma concentration against time. The elimination half-life (t1/2) was calculated using the formula. t1/2 = 0.693/Ke(1)
The area under the blood concentration versus time curve up to the last quantifiable time point (AUC0→t) was calculated by the linear trapezoidal rule. The area under the plasma concentration –time curve to time infinity (AUC0→∞) was calculated as follows: AUC0→∞ = AUC0→t + Ct/Ke(2)
The maximum observed blood concentration (Cmax) and the time to reach maximum observed blood concentration (Tmax) were obtained directly from the concentration-time curve.

[3] = Room temperature stability of stock solution; assay type: physicochemical; conditions: 25 °C for 24 h, n = 6
Experimental: as §1

SMILES	Stability (% RE) Long-Term ([1]; high QC in beagle plasma)	Stability (% RE) Short-Term ([1]; high QC in beagle plasma)	Stability (% RE) Freeze-Thaw ([1]; high QC in beagle plasma)	Stability (% RE) Post-Preparative ([1]; high QC)	Stability (% RE) Long-Term ([1]; low QC in beagle plasma)	Stability (% RE) Short-Term ([1]; low QC in beagle plasma)	Stability (% RE) Freeze-Thaw ([1]; low QC in beagle plasma)	Stability (% RE) Post-Preparative ([1]; low QC)	Stability (% RE) Long-Term ([1]; medium QC in beagle plasma)	Stability (% RE) Short-Term ([1]; medium QC in beagle plasma)	Stability (% RE) Freeze-Thaw ([1]; medium QC in beagle plasma)	Stability (% RE) Post-Preparative ([1]; medium QC)	AUC(0-inf) [2]	AUC(0-t) [2]	Cmax [2]	Tmax [2]	half-life [2]	Stability (% RE) Room Temperature for Stock-Solution ([3]; high QC level)	Stability (% RE) Room Temperature for Stock-Solution ([3]; low QC level)	Stability (% RE) Room Temperature for Stock-Solution ([3]; medium QC level)	further results
COc1ccc2cc3[n+](cc2c1O)CCc1cc2c(cc1-3)OCO2 [Berberrubine, berberrubine]	11.01 % RE	10.78 % RE	10.06 % RE	5.08 % RE	11.85 % RE	11.76 % RE	12.88 % RE	5.99 % RE	3.75 % RE	5.82 % RE	5.15 % RE	7.97 % RE	1200 ± 86.3 ng·h/mL	1160 ± 94.2 ng·h/mL	450 ± 61.6 ng/mL	0.96 ± 0.1 h	4.88 ± 1.72 h	3.65 % RE	−2.05 % RE	1.25 % RE	–
COc1cc2c(cc1OC)-c1cc3ccc(OC)c(OC)c3c[n+]1CC2 [Palmatine, palmatine]	11.04 % RE	6.73 % RE	8.37 % RE	−7.08 % RE	7.79 % RE	9.42 % RE	10.26 % RE	6.92 % RE	10.77 % RE	−6.30 % RE	8.08 % RE	9.22 % RE	9580 ± 596 ng·h/mL	8040 ± 459 ng·h/mL	1900 ± 84.9 ng/mL	0.96 ± 0.1 h	8.56 ± 1.29 h	–	–	–	Shape of plasma concentration-time profile [2]: conspicuous bimodal phenomenon; Time of first peak of plasma concentration-time profile [2]: 0.5 to 1 h; Time of second peak of plasma concentration-time profile [2]: 4 to 8 h
COc1cc2c(cc1OC)[C@@H]1Cc3ccc(OC)c(OC)c3CN1CC2 [Terahydropalmatine, tetrahydropalmatine]	10.23 % RE	5.15 % RE	10.09 % RE	8.76 % RE	−5.67 % RE	9.24 % RE	11.34 % RE	10.82 % RE	11.88 % RE	3.11 % RE	12.23 % RE	8.29 % RE	622 ± 52.5 ng·h/mL	585 ± 59.9 ng·h/mL	205 ± 22.4 ng/mL	0.92 ± 0.13 h	5.58 ± 1.46 h	1.28 % RE	2.97 % RE	4.65 % RE	–
CN1Cc2c(ccc3c2OCO3)[C@@]2(C)[C@@H](O)Cc3cc4c(cc3[C@@H]12)OCO4 [Corynoline, corynoline]	9.74 % RE	6.81 % RE	7.95 % RE	5.40 % RE	13.95 % RE	−2.63 % RE	6.11 % RE	7.14 % RE	6.81 % RE	9.25 % RE	6.78 % RE	−2.98 % RE	755 ± 58.9 ng·h/mL	734 ± 57.5 ng·h/mL	224 ± 15.3 ng/mL	0.96 ± 0.1 h	4.25 ± 0.81 h	–	–	–	Shape of plasma concentration-time profile [2]: conspicuous bimodal phenomenon; Time of first peak of plasma concentration-time profile [2]: 0.5 to 1 h; Time of second peak of plasma concentration-time profile [2]: 4 to 8 h
